In patent US8084457B2, “Pharmaceutically active 4,6-disubstituted aminopyrimidine derivatives as modulators of protein kinases” (Lead Discovery Center GmbH, priority 2003, dated 2011):

Experiments:
Type in all cases: biochemical
c-Kit = c-Kit (Homo sapiens, UniProt P10721); test: General kinase assay, selectivity panel: c-Kit; details: 10 μM of compound, in comparison to DMSO (0% inhibition)
Experimental: (§1) The inhibitory effect of compounds according to the present invention on the activity of protein kinases, depicted in Table 1, can be measured according to the following protocol:
(§2) Pipettinq Sequence: • 1) Add 10 μl 4 fold concentrated Substrate+4 fold concentrated ATP in 3 fold concentrated Reaction Buffer to each well of Assay Plate • 2) Add 10 μl 4 fold concentrated inhibitor in 4% DMSO in H2O to each well except to C− and C+ wells • 3) Add 10 μl 4% DMSO in H2O to C− and C+ wells • 4) Add 10 μl 500 mM EDTA in H2O to − wells • 5) Add 10 μl 50 μCi/ml Adenosine 5′-[γ-^33P]triphosphate in H2O to each well • 6) Add 10 μl 4 fold concentrated kinase in Reaction Buffer to each well • 7) Incubate 1 hr at room temperature • 8) Add 10 μl 50 mM EDTA in H2O to each well except to C− wells • 9) Prepare MAPH plates by adding 200 μl 0.75% H3PO4 to each well • 10) Exhaust 0.75% H3PO4 using Millipore vacuum station • 11) Add 60 μl 0.75% H3PO4 to each well of MAPH Filter Plate • 12) Transfer 30 μl sample per well from Assay Plate to corresponding well of MAPH Filter Plate • 13) Incubate 30 min at room temperature • 14) Wash each well of MAPH Filter Plates 3× with 200 μl 0.75% H3PO4 using Millipore vacuum station. • 15) Add 20 μl Scintillation Liquid to each well of MAPH Filter Plate • 16) Seal MAPH Filter Plate • 17) Store MAPH Filter Plate 30 min in darkness • 18) Quantify radioactivity
(§3) The activity of these protein kinases is depicted as % inhibition in the presence of 10 μM of compound in comparison to DMSO (0% inhibition).

Abl = Abl (Homo sapiens, UniProt P00519); test: General kinase assay, selectivity panel: Abl; details: 10 μM of compound, in comparison to DMSO (0% inhibition)
Experimental: as §1, §2, §3

p56 Lck = p56 Lck (Homo sapiens, UniProt P06239); test: General kinase assay, selectivity panel: p56 Lck; details: 10 μM of compound, in comparison to DMSO (0% inhibition)
Experimental: as §1, §2, §3

EGFR = EGFR (Homo sapiens, UniProt P00533); test: General kinase assay, selectivity panel: EGFR; details: 10 μM of compound, in comparison to DMSO (0% inhibition)
Experimental: as §1, §2, §3

PDGFR = test: General kinase assay, selectivity panel: PDGFR; details: 10 μM of compound, in comparison to DMSO (0% inhibition)
Experimental: as §1, §2, §3

CDK1 = CDK1 (Homo sapiens, UniProt P06493); test: General kinase assay, selectivity panel: CDK1; details: 10 μM of compound, in comparison to DMSO (0% inhibition)
Experimental: as §1, §2, §3

GSK-3β = GSK-3β (Homo sapiens, UniProt P49841); test: General kinase assay, selectivity panel: GSK-3β; details: 10 μM of compound, in comparison to DMSO (0% inhibition)
Experimental: as §1, §2, §3

CDK2/CyclinA = target: T1, CDK2/CyclinA (Homo sapiens, UniProt P24941); test: Kinase assay determining CDK2/CyclinA activity; details: read-out: CDK2 (activity range)
T1 construct: purchased Proqinase
Experimental: Kinase Assays Determining CDK2/CyclinA and CDK5/p35 Activity:
Kinase assays were performed as described by the manufacturers recommendations (Proqinase for CDK2/CyclinA and Upsate for CDK5/p35).

CDK4 = CDK4 (Homo sapiens, UniProt P11802); test: Kinase assay, CDK4 activity range (Table 2)
CDK9/Cyclin T1 = target: T2, CDK9/Cyclin T1 (Homo sapiens, UniProt P50750); test: Kinase assay using CDK9/Cyclin T1; details: read-out: CDK9 (activity range)
T2 construct: made in house; host or cells: HEK293 cells, recombinant adenovirus
Summary of the method: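 Recombinant CDK9/Cyclin T1 produced via adenoviral expression from gateway-cloned cDNAs. Kinase reaction run essentially per a published protocol.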

T2 sequence (P50750 whole entry): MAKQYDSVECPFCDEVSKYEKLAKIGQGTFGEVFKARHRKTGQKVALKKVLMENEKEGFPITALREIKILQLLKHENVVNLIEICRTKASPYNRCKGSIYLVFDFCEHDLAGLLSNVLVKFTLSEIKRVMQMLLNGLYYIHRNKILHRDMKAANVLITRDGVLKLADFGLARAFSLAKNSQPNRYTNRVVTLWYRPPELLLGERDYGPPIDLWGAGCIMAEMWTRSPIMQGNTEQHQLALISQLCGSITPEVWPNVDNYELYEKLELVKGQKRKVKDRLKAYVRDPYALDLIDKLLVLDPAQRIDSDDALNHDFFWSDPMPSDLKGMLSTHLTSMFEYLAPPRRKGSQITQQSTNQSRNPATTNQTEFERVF
T2 sequence (O60563 whole entry partner): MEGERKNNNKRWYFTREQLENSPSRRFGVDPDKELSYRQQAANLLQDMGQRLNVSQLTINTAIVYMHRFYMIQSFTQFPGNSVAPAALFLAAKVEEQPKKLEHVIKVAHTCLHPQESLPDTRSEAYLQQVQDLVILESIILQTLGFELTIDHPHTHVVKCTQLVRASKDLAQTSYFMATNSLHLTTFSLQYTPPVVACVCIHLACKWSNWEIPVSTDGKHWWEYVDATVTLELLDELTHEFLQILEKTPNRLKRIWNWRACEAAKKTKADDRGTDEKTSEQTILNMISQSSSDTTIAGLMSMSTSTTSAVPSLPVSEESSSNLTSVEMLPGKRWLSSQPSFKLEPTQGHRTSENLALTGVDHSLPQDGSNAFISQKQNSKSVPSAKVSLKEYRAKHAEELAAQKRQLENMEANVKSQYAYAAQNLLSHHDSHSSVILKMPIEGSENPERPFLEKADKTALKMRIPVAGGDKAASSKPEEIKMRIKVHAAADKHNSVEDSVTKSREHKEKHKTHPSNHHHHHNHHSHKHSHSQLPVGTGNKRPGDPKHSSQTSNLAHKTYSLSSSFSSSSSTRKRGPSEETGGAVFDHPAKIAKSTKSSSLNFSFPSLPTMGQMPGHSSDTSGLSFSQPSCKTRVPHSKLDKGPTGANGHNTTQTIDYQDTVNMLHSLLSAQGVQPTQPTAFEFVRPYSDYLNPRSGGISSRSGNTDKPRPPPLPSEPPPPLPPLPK
Sequence of CDK1 (P06493 whole entry, species assumed): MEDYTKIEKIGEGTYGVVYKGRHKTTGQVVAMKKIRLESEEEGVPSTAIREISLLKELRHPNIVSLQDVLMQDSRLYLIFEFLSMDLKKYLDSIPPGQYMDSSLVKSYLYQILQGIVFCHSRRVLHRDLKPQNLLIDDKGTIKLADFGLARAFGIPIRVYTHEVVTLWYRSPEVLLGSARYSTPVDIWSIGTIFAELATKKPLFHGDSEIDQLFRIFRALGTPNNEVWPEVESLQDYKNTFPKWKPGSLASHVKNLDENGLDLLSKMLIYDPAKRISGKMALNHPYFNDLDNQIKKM
Sequence of CDK1 (P14635 whole entry partner, species assumed): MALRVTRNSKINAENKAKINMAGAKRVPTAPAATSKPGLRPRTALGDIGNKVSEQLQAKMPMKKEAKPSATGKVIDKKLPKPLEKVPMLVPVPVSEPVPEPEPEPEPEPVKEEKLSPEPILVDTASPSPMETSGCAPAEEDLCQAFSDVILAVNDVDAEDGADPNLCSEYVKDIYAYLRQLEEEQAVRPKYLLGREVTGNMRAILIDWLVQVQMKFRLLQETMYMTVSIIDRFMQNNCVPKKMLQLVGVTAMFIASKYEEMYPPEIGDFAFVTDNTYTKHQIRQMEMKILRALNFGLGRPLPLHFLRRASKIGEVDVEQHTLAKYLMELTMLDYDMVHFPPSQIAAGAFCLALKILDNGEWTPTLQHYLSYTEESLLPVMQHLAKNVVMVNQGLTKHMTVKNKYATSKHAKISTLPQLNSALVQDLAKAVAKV
Sequence of GSK-3β (P49841 whole entry, species assumed): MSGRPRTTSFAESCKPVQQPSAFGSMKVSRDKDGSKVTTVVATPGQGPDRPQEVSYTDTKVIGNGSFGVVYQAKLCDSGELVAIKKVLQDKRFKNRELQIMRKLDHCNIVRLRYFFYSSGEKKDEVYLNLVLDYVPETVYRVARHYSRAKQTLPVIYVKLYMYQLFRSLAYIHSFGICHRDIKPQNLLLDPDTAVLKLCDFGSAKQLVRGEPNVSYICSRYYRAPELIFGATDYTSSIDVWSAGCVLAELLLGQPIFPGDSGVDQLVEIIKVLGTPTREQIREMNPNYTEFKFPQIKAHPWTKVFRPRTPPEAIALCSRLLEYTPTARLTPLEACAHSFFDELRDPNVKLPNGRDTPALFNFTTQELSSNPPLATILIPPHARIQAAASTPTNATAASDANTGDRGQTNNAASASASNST
Sequence of EGFR (P00533 25-1210, species assumed): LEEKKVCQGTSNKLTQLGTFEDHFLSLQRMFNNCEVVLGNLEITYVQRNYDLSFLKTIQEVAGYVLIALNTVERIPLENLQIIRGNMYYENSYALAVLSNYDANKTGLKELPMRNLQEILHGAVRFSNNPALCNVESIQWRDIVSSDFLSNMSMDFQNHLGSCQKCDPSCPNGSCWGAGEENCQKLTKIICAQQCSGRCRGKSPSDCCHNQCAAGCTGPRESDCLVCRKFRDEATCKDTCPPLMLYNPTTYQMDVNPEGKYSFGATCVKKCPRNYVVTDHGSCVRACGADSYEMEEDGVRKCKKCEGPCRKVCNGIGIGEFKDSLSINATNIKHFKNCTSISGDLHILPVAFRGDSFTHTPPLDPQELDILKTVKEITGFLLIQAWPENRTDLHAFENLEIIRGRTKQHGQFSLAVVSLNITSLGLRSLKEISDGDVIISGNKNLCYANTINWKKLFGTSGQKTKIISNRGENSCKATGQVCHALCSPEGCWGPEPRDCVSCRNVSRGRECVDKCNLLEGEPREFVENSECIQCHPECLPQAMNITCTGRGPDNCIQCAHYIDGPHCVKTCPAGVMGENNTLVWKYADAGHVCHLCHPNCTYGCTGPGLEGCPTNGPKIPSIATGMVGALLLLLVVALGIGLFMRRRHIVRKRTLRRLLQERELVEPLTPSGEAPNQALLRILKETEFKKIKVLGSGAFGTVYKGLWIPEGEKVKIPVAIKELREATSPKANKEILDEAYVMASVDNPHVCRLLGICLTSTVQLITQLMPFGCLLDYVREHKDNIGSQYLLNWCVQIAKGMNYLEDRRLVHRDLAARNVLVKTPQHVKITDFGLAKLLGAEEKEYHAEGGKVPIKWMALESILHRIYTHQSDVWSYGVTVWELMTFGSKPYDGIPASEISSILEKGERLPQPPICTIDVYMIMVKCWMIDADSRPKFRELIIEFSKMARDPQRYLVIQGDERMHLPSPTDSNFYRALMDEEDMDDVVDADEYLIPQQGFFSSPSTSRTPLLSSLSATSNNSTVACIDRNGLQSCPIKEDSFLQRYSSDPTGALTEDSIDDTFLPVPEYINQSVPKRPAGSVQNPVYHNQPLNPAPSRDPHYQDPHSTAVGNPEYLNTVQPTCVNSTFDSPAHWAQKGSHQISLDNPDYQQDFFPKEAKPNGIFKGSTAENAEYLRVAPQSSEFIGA
Sequence of p56 Lck (P06239 whole entry): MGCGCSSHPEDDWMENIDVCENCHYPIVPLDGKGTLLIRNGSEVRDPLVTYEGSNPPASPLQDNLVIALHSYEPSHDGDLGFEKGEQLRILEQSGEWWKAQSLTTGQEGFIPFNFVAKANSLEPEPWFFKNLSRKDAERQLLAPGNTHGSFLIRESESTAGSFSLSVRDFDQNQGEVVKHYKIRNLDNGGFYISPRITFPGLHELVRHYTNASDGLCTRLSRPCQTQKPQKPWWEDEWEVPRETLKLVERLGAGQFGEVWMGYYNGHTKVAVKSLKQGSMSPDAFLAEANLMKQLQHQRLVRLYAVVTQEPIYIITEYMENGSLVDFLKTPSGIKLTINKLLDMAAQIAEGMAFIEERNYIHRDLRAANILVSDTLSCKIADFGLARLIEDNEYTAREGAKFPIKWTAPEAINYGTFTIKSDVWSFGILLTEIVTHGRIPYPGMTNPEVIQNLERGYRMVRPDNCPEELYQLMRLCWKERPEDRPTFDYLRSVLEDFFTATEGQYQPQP
Sequence of c-Kit (P10721 26-976): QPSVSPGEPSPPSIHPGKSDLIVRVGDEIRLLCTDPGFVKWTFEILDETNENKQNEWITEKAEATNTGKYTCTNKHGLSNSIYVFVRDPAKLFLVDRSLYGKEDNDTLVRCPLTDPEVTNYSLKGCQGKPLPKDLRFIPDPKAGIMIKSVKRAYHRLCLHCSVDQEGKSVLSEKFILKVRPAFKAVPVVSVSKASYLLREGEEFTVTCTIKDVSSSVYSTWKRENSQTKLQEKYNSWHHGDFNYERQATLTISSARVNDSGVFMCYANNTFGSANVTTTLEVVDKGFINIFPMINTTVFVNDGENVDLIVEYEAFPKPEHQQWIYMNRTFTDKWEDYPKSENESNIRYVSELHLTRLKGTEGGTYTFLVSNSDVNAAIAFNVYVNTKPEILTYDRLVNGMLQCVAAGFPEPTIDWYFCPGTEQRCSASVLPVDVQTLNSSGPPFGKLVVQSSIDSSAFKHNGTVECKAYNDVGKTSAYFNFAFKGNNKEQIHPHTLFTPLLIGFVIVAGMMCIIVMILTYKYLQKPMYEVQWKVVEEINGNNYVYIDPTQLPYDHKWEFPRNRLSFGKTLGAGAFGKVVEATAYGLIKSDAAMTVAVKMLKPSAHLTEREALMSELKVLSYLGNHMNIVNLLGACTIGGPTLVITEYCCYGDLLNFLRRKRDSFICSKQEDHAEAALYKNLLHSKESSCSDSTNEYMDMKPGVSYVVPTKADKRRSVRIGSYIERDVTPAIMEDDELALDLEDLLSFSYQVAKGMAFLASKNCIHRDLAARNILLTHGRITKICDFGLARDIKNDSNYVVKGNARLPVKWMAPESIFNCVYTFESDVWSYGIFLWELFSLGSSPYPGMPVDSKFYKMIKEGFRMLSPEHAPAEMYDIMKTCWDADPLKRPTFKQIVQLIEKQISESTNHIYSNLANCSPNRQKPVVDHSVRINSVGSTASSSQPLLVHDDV

Structure (SMILES)	c-Kit (% inhibition) (c-Kit)	Abl (% inhibition) (Abl)	p56 Lck (% inhibition) (p56 Lck)	EGFR (% inhibition) (EGFR)	PDGFR (% inhibition) (PDGFR)	CDK1 (% inhibition) (CDK1)	GSK-3β (% inhibition) (GSK-3β)	IC50 (CDK2/CyclinA) [nM]	IC50 (CDK4) [nM]	IC50 (CDK9/Cyclin T1) [nM]
COc1ccccc1-c1cc(Nc2ccc(NC(=O)C3(N)CCCC3)cc2)ncn1 [Compound 68]	b (inhibition between 80 and 50%: b)	b (inhibition between 80 and 50%: b)	b (inhibition between 80 and 50%: b)	a (inhibition greater than 80%: a)	b (inhibition between 80 and 50%: b)	b (inhibition between 80 and 50%: b)	–	–	–	–
COc1ccccc1-c1cc(Nc2ccc(N)cc2)ncn1 [Compound 22]	b (inhibition between 80 and 50%: b)	–	b (inhibition between 80 and 50%: b)	a (inhibition greater than 80%: a)	c (inhibition between 50 and 30%: c)	a (inhibition greater than 80%: a)	c (inhibition between 50 and 30%: c)	–	–	–
COc1ccccc1-c1cc(Nc2ccc(NC(=O)c3ccc(N)cc3)cc2)ncn1 [Compound 8]	b (inhibition between 80 and 50%: b)	–	b (inhibition between 80 and 50%: b)	–	–	a (inhibition greater than 80%: a)	–	–	–	–
COc1ccccc1-c1cc(Nc2ccc(NC(C)=O)cc2)ncn1 [Compound 10]	b (inhibition between 80 and 50%: b)	–	b (inhibition between 80 and 50%: b)	b (inhibition between 80 and 50%: b)	c (inhibition between 50 and 30%: c)	a (inhibition greater than 80%: a)	b (inhibition between 80 and 50%: b)	–	–	–
COc1ccccc1-c1cc(Nc2ccc(NC(=O)C3(N)CCCCC3)cc2)ncn1 [Compound 66]	b (inhibition between 80 and 50%: b)	b (inhibition between 80 and 50%: b)	b (inhibition between 80 and 50%: b)	a (inhibition greater than 80%: a)	b (inhibition between 80 and 50%: b)	b (inhibition between 80 and 50%: b)	–	–	–	–
COc1ccccc1-c1cc(Nc2ccc(NC(=O)Cc3ccccc3)cc2)ncn1 [Compound 71]	b (inhibition between 80 and 50%: b)	–	b (inhibition between 80 and 50%: b)	c (inhibition between 50 and 30%: c)	b (inhibition between 80 and 50%: b)	a (inhibition greater than 80%: a)	c (inhibition between 50 and 30%: c)	–	–	–
CC(C)Oc1ccccc1-c1cc(Nc2ccc(NC(=O)c3ccc(N)cc3)cc2)ncn1 [Compound 58]	–	–	a (inhibition greater than 80%: a)	b (inhibition between 80 and 50%: b)	–	a (inhibition greater than 80%: a)	a (inhibition greater than 80%: a)	–	–	–
COc1ccccc1-c1cc(Nc2ccc(NC(=O)[C@H]3CCCN3)cc2)ncn1 [Compound 91]	–	b (inhibition between 80 and 50%: b)	b (inhibition between 80 and 50%: b)	a (inhibition greater than 80%: a)	b (inhibition between 80 and 50%: b)	b (inhibition between 80 and 50%: b)	c (inhibition between 50 and 30%: c)	–	–	–
COc1ccccc1-c1cc(Nc2ccc(NC(=O)NC3CCCCC3)cc2)ncn1 [Compound 38]	b (inhibition between 80 and 50%: b)	–	b (inhibition between 80 and 50%: b)	c (inhibition between 50 and 30%: c)	b (inhibition between 80 and 50%: b)	b (inhibition between 80 and 50%: b)	c (inhibition between 50 and 30%: c)	–	–	–
COc1ccccc1-c1cc(Nc2ccc(NC(=O)CC3CCCCN3)cc2)ncn1 (stereo not drawn) [Compound 59]	b (inhibition between 80 and 50%: b)	b (inhibition between 80 and 50%: b)	b (inhibition between 80 and 50%: b)	a (inhibition greater than 80%: a)	b (inhibition between 80 and 50%: b)	a (inhibition greater than 80%: a)	–	–	–	–
COc1ccccc1-c1cc(Nc2ccc(NC(=O)[C@H]3Cc4ccccc4CN3)cc2)ncn1 [Compound 65]	b (inhibition between 80 and 50%: b)	b (inhibition between 80 and 50%: b)	b (inhibition between 80 and 50%: b)	a (inhibition greater than 80%: a)	b (inhibition between 80 and 50%: b)	b (inhibition between 80 and 50%: b)	–	–	–	–
COc1ccccc1-c1cc(Nc2ccc(C(=O)NC3CCCNC3)cc2)ncn1 (stereo not drawn) [(86)]	–	–	–	–	–	–	–	1 to 1000	1 to 1000	1 to 1000
Cc1ccc(Nc2cc(-c3ccccc3)ncn2)cc1NS(C)(=O)=O [(106)]	–	–	–	–	–	–	–	1 to 1000	10000 to 250000	1 to 1000
Cc1ccc(Nc2cc(-c3cccc(N)c3)ncn2)cc1NS(C)(=O)=O [Compound 12]	b (inhibition between 80 and 50%: b)	–	b (inhibition between 80 and 50%: b)	a (inhibition greater than 80%: a)	c (inhibition between 50 and 30%: c)	a (inhibition greater than 80%: a)	a (inhibition greater than 80%: a)	–	–	–
COc1ccccc1-c1cc(Nc2ccc(NC(=O)[C@H]3CCCCN3)cc2)ncn1 [Compound 69]	b (inhibition between 80 and 50%: b)	b (inhibition between 80 and 50%: b)	a (inhibition greater than 80%: a)	a (inhibition greater than 80%: a)	b (inhibition between 80 and 50%: b)	b (inhibition between 80 and 50%: b)	–	–	–	–
COc1ccccc1-c1cc(Nc2ccc(NC(=O)[C@H]3CCCN3)cc2)ncn1 [(91)]	–	–	–	–	–	–	–	1000 to 10000	1000 to 10000	1 to 1000
NCCCOc1ccccc1-c1cc(Nc2ccc(NC(=O)c3ccc(N)cc3)cc2)ncn1 [(103)]	–	–	–	–	–	–	–	1000 to 10000	10000 to 250000	1 to 1000
COc1ccccc1-c1cc(Nc2ccc(NC(=O)C3(N)CCCC3)cc2)ncn1 [(68)]	–	–	–	–	–	–	–	1000 to 10000	1000 to 10000	1 to 1000
CC(=O)Nc1cccc(-c2cc(Nc3ccc(C)c(NS(C)(=O)=O)c3)ncn2)c1 [(104)]	–	–	–	–	–	–	–	1000 to 10000	10000 to 250000	1 to 1000
COc1ccccc1-c1cc(Nc2ccc(C(=O)NC3CCCNC3)cc2)ncn1 (stereo not drawn) [Compound 86]	–	c (inhibition between 50 and 30%: c)	b (inhibition between 80 and 50%: b)	a (inhibition greater than 80%: a)	b (inhibition between 80 and 50%: b)	a (inhibition greater than 80%: a)	b (inhibition between 80 and 50%: b)	–	–	–
CCCS(=O)(=O)Nc1cc(Nc2cc(-c3cccc(N)c3)ncn2)ccc1C [Compound 116]	–	–	b (inhibition between 80 and 50%: b)	a (inhibition greater than 80%: a)	c (inhibition between 50 and 30%: c)	a (inhibition greater than 80%: a)	a (inhibition greater than 80%: a)	–	–	–
COc1ccccc1-c1cc(Nc2ccc(NC(=O)C3(N)CCCCC3)cc2)ncn1 [(66)]	–	–	–	–	–	–	–	1000 to 10000	1000 to 10000	1 to 1000
COc1cccc(-c2cc(Nc3ccc(NC(=O)[C@@H]4CCCCN4)cc3)ncn2)c1OC [(186)]	–	–	–	–	–	–	–	10000 to 250000	1000 to 10000	1000 to 10000
CC(C)Oc1ccccc1-c1cc(Nc2ccc(NC(=O)[C@@H]3CCCCN3)cc2)ncn1 [(188)]	–	–	–	–	–	–	–	1000 to 10000	1 to 1000	1 to 1000
